Measurements from patent publication US20230125667A1, “NOVEL TDZD ANALOGS AS AGENTS THAT DELAY, PREVENT, OR REVERSE AGE-ASSOCIATED DISEASES AND AS ANTI-CANCER AND ANTILEUKEMIC AGENTS” (United States Government as represented by the Department …, priority 2020, published 2023).
Read-outs that look alike come from different tables or passages of the source.

System: MV4-11 cell line (myelomonocytic leukemia)
Settings: MV4-11 cells
[1] = Ibuprofen-TDZD analogs (Table 3)

Structure (SMILES) | LD50, 7AAD (μM) 24 h [1] | LD50, Alamar blue (μM) 24 h [1] | LD50, YOPRO (μM) 24 h [1] | LD50, 7AAD (μM) 24 h (MMB-TDZD analogs (Table 2)) | LD50, Alamar blue (μM) 24 h (MMB-TDZD analogs (Table 2)) | LD50, YOPRO (μM) 24 h (MMB-TDZD analogs (Table 2)) | LD50 (values in text)
CC(C)Cc1ccc(C(C)C(=O)NCc2ccc(Cn3c(=O)sn(CCI)c3=O)cc2)cc1 (stereo not shown) [BSK-265] | 2.71 µM | 2.50 µM | 2.87 µM |  |  |  | 
C=C1C(=O)O[C@H]2[C@H]1CC/C(COC(=O)NCc1ccc(Cn3c(=O)sn(-c4ccc(Cl)cc4)c3=O)cc1)=C\CC[C@@]1(C)O[C@@H]21 [BSK-268] |  |  |  | 0.55 µM | 0.63 µM | 0.68 µM | 130 nM
CC(C)Cc1ccc(C(C)C(=O)NCc2ccc(Cn3c(=O)sn(CCCCl)c3=O)cc2)cc1 (stereo not shown) [BSK-236] | 1.75 µM | 2.50 µM | 1.77 µM |  |  |  | 
CC(C)Cc1ccc(C(C)C(=O)NCc2ccc(Cn3c(=O)sn(-c4ccccc4)c3=O)cc2)cc1 (stereo not shown) [BSK-239] | 4.91 µM | 4.70 µM | 4.24 µM |  |  |  | 
C=C1C(=O)O[C@H]2[C@H]1CC/C(COC(=O)NCc1ccc(Cn3c(=O)sn(-c4ccc(C#N)cc4)c3=O)cc1)=C\CC[C@@]1(C)O[C@@H]21 [BSK-263] |  |  |  | 0.23 µM | 0.75 µM | 0.13 µM | 
CC(C)Cc1ccc(C(C)C(=O)NCc2ccc(Cn3c(=O)sn(-c4ccc(C#N)cc4)c3=O)cc2)cc1 (stereo not shown) [BSK-267] | 14.8 µM | 12.00 µM | 17.3 µM |  |  |  | 
COc1ccc(-n2sc(=O)n(Cc3ccc(CNC(=O)C(C)c4ccc(CC(C)C)cc4)cc3)c2=O)cc1 (stereo not shown) [BSK-270] | 8.21 µM | 9.00 µM | 6.14 µM |  |  |  | 
CCCCn1sc(=O)n(Cc2ccc(CNC(=O)C(C)c3ccc(CC(C)C)cc3)cc2)c1=O (stereo not shown) [BSK-238] | 11.2 µM | 10.00 µM | 10.9 µM |  |  |  | 
Cn1sc(=O)n(Cc2ccccc2)c1=O [TDZD-8, 4-benzyl, 2-methyl, 1,2,4-thiadiazolidine, 3,5 dione, reference compound] | 3.61 µM | 4.5 µM | 3.29 µM | 3.61 µM | 4.5 µM | 3.29 µM | 
CC(C)Cc1ccc(C(C)C(=O)NCc2ccc(Cn3c(=O)sn(-c4ccc(Cl)cc4)c3=O)cc2)cc1 (stereo not shown) [BSK-266] | 10.7 µM | 12.00 µM | 10.6 µM |  |  |  | 
CCCCCn1sc(=O)n(Cc2ccc(CNC(=O)C(C)c3ccc(CC(C)C)cc3)cc2)c1=O (stereo not shown) [BSK-235] | 2.54 µM | 3.50 µM | 3.2 µM |  |  |  | 
CC(C)Cc1ccc(C(C)C(=O)NCc2ccc(Cn3c(=O)sn(CCCI)c3=O)cc2)cc1 (stereo not shown) [BSK-260] | 1.42 µM | 1.49 µM | 1.48 µM |  |  |  | 
